Assay results as given in patent publication US6943278B2, “Transgenic Drosophila having a disrupted Parkin gene and exhibits reduced climbing ability” (GenExel, Inc., priority 2002, dated 2005).

Tests used:
Format in all cases: in vivo, Drosophila
[1] = system: Dpark^2 parkin mutant flies; assay: rescue of defective climbing response of Dpark^2 mutant flies; details: for % climbing abilities, Dpark2/Dpark2: Dpark2/Dpark2 flies fed 1 mM compound on dry yeast for 10 days, relative to unfed wild type control; for effect on climbing response (in words): Dpark^2 flies fed 1 mM compound for 10 days
Method: (§1) parkin mutant flies older than 3-4 days after eclosion moved extremely slowly or not at all, remaining on the bottom of the culture vials. To quantify the locomotor behavioral defects of parkin mutant flies, the climbing ability of the mutants was examined. To do so, fifteen flies were placed in a plastic vial, and gently tapped to the bottom of the vial. The number of flies at the top of the vial was counted after 18 seconds of climbing. Ten trials were performed for each time point. The trial numbers were then averaged, and the resulting mean was normalized by the mean value of 1-day-old wild type. These used as the climbing scores for each single group of flies on a particular day. The experiment was repeated five times, with independently derived transgenic lines. The climbing score for five repeated experiments was then averaged, and a group mean and standard error were obtained. As previously reported (Ganetzky and Flanagan, Exp. Gerontol., 13:189 (1978); Le Bourg and Lints, Gerontology 8:59 (1992); Feany and Bender, 2000; Pendleton et al., J. Pharmacol. Exp. Ther. 300:91 (2002)), wild type flies rapidly climb to the top of a vial when tapped to the bottom, and have a strong tendency to remain at the top. However, as the flies get older, they no longer climb to the top of the vial, in other words they lose climbing ability (Ganetzky and Flanagan, 1978; Le Bourg and Lints, 1992; Feany and Bender, 2000; Pendleton et al., 2002).
(§2) A compound was screened for its ability to rescue the defective climbing response of Dpark^1 and Dpark^2 mutants. Flies were reared and crossed on Caltech medium (Ashbumer, Drosophila, Cold Spring Harbor, N.Y.: Cold Spring Harbor Laboratory Press (1989)) at 25° C. Wild type or parkin mutant flies were fed either L-DOPA or D-DOPA for 10 days by placing dry yeast that was soaked with 0.3 mL of either 1 mM L-DOPA or 1 mM D-DOPA on the bottom of the vial.

[2] = system: Dpark^1 parkin mutant flies; assay: rescue of defective climbing response of Dpark^1 mutant flies; details: for % climbing abilities, Dpark1/Dpark1: Dpark1/Dpark1 flies fed 1 mM compound on dry yeast for 10 days, relative to unfed wild type control; for effect on climbing response (in words): Dpark^1 flies fed 1 mM compound for 10 days
Method: as §1, §2

[3] = system: wild type flies; assay: climbing ability of wild type flies fed D- or L-dopa; details: for effect on climbing response (in words): wild type flies fed 1 mM compound for 10 days; for % climbing abilities, WT: wild type flies fed 1 mM compound on dry yeast for 10 days
Method: as §1, §2

## N[C@H](Cc1ccc(O)c(O)c1)C(=O)O [D-dopa, D-DOPA]
[1]
  % climbing abilities, Dpark2/Dpark2: 37.75 ± 2.44%
  effect on climbing response (in words): not effective
[2]
  % climbing abilities, Dpark1/Dpark1: 33.221 ± 1.87%
  effect on climbing response (in words): not effective
[3]
  effect on climbing response (in words): Neither L-DOPA nor D-DOPA was effective
  % climbing abilities, WT: 101.90 ± 2.72%

## N[C@@H](Cc1ccc(O)c(O)c1)C(=O)O [L-dopa, L-DOPA]
[1]
  % climbing abilities, Dpark2/Dpark2: 68.51 ± 10.09%
  effect on climbing response (in words): significantly restored the climbing response
[1]; listed as L-DOPA
  % climbing abilities, Dpark2/Dpark2: ~70%
[2]
  % climbing abilities, Dpark1/Dpark1: 68.20 ± 6.06%
  effect on climbing response (in words): significantly restored the climbing response
[2]; listed as L-DOPA
  % climbing abilities, Dpark1/Dpark1: ~70%
[3]
  effect on climbing response (in words): Neither L-DOPA nor D-DOPA was effective
  % climbing abilities, WT: 100.59 ± 2.73%
